For 2 compounds, IC50, Individual related material and Total related material results are on record in US20240300943A1, “NOVEL SALTS OF HETEROCYCLIC COMPOUND AS PROTEIN KINASE INHIBITOR AND USES THEREOF” (HK INNO.N CORPORATION, priority 2021, published 2024).

SMILES strings stand for the structures.

The target of one series is JAK2 (Homo sapiens, UniProt O60674). The experiment in a line: In vitro cell assay, JAK2 (STAT phosphorylation ELISA). In kind it is cell-based. Details: endogenous in cells; host or cells: UT-7/EPO (inferred). Conditions: read-out: IC50, Cell Biology JAK2. The procedure: UT-7/EPO cell is an erythroleukemic cell line which expresses an EPO receptor, and is frequently used in many previous studies as a model to assess EPO-induced STAT5 phosphorylation mediated by JAK1 and JAK2 activity. Accordingly, in order to evaluate the activity of JAK1 and JAK2, UT-7/EPO cells were prepared.
JAK2, sequence (O60674 whole entry, species assumed): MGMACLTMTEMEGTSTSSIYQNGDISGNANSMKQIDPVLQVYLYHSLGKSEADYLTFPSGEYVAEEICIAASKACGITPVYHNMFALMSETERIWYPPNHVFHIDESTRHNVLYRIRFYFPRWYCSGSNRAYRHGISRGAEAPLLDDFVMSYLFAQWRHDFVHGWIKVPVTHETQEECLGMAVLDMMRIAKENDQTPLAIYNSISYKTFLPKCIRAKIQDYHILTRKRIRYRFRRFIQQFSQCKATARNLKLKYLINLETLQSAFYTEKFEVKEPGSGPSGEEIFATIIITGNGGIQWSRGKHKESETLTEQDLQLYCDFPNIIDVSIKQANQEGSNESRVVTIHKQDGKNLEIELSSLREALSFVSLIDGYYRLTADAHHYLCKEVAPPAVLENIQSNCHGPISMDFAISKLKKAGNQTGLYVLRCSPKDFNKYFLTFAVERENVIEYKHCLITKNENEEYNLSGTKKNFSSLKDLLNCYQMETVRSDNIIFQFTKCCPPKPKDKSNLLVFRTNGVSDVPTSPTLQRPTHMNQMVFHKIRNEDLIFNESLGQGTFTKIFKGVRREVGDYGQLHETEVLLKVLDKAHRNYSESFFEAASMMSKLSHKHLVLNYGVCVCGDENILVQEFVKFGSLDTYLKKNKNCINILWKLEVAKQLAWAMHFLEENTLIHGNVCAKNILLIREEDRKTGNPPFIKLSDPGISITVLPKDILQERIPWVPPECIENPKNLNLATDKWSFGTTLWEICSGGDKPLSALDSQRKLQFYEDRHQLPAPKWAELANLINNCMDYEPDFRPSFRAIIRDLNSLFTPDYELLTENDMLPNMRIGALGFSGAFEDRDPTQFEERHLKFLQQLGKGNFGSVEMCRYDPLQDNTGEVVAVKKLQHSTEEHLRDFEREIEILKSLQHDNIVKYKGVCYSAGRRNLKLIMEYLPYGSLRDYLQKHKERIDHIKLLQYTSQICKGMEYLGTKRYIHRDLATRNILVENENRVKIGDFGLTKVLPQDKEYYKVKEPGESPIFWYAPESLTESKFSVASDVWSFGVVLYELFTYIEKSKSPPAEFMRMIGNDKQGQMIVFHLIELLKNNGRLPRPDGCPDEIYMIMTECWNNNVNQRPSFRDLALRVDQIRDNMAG
The test material was dissolved in DMSO, prepared at 10 mM, divided by 20 μL each, and stored at −20° C.
• EPO: 2000 U/0.5 mL of stock was divided by 50 μL each and stored under refrigeration. • IL-2: 200 μg/ml of stock was prepared, divided by 5 μL each, and stored, and then treated at 2 ng/ml. (IL-2 1 μg/ml=13000 U/ml) • IFN-alphaB2: […] of stock was diluted and used, and then treated to reach 30000 U/ml.
• UT-7/EPO cell assay: MEM-alpha (Gibco, cat #12561-056) was prepared to contain 5% FBS and 1% P/S before use. • NK-92 cell assay: A preparation was made to contain HBSS, 1% FBS and 1% P/S before use. • U2OS cell assay: A preparation was made to contain HBSS, 1% FBS and 1% P/S before use.
The cultured cells were centrifuged (1,000 rpm, 5 minutes) and washed with PBS. The size of cell lines and appropriate reaction concentration thereof were set and the cell lines were seeded in a 96-well plate at 1×10^5 to 10^6 cells/well (50 μL/well). […]
A general note: In an ELISA, binding on a coated surface is turned into a signal by an enzyme label.

A further series has as its system JAK1, Tyk2. Nature of the series: Human whole blood assay, JAK1, Tyk2. Format: cell-based. As to conditions: cytokine-induced STAT phosphorylation. The method, then:
A stock solution of Compound 1 obtained according to Preparation Example 1 was diluted with distilled water and then serially diluted at ⅕ with 4% DMSO. 5 μL of test material was added to 100 μL of whole blood collected using a 1.7 mL eppendorf tube, mixed, and incubated at 37° C. for 45 minutes.
IL-6 (10 μg/ml) was diluted with 0.1% BSA/DW to reach 1 μg/mL each. 5 μL of IL-6 was added (at a final concentration of 50 ng/mL) and incubated at 37° C. for 15 minutes. At this time, 5 μL of DPBS was added as a non-stimulated control group. Lyse/fix buffer 5× was diluted 1× in distilled water and used. […]
For double staining of CD4 and pSTATI, anti-[…] and anti-pSTATI were mixed in a staining buffer and added to each of the samples. […] On the next day, the results were analyzed using FACSCanto II. […]
The numerical values analyzed by FlowJo were calculated to obtain IC50 values using GraphPad Prism 5 software (product name).
No treatment response (NTR) was set as a reference, and the degree of the phosphorylation of STAT induced by cytokines was converted into a relative ratio (% control group). A dose-response plot was obtained for each concentration-dependent activity of each test material using GraphPad Prism (version 5.0) and ICso values were calculated.

Series [1] in a line: Photostability evaluation. Format: physicochemical. An excerpt:
Samples were packaged in LPDE bag, and stored under visible (1.2M Lux-h), UV (200 W-h/m2) and UV+visible conditions, respectively, and then evaluated.

For the compound `C[C@@H]1CN(C(=O)CC#N)CC=C1c1cc(NC(=O)C2CC2)nc2[nH]ccc12` [Compound 1, (S)—N-(4-(1-(2-cyanoacetyl)-3-methyl-1,2,3,6-tetrahydropyridin-4-yl)-1H-pyrrolo[2,3-b]pyridin-6-yl)cyclopropanecarboxamide], the half-maximal inhibitory concentration (IC50) (as a rule, the concentration that gives 50% inhibition) on JAK2 was determined as 0.656 µM; in the series with JAK1, Tyk2, 0.168 µM.
Turning to `C[C@@H]1CN(C(=O)CC#N)CC=C1c1cc(NC(=O)C2CC2)nc2[nH]ccc12` [Example 3, (S)—N-(4-(1-(2-cyanoacetyl)-3-methyl-1,2,3,6-tetrahydropyridin-4-yl)-1H-pyrrolo[2,3-b]pyridin-6-yl)cyclopropanecarboxamide], the Individual related material in series [1] (Initial) is 0.08%; in series [1] (Solid, Control), 0.07%; in series [1] (Solid, UV (200 W-h/m2)) it was 0.1%; in series [1] (Solid, UV + Vis), 0.08%; in series [1] (Solid, UV + Vis Control) it was 0.08%; in series [1] (Solid, Vis (1.2M Lux-h)) it was 0.07%. Also, the Total related material stood at 0.45% in series [1] (Initial); 0.37% in series [1] (Solid, Control); 0.42% in series [1] (Solid, UV (200 W-h/m2)); 0.5% in series [1] (Solid, UV + Vis); 0.48% in series [1] (Solid, UV + Vis Control); 0.41% in series [1] (Solid, Vis (1.2M Lux-h)).
